The values below come from ChEMBL document CHEMBL1201862, “PubChem BioAssay data set” (2004).

A short description of test [1]: human group III sPLA2 inhibitors, dose response, biochemical, QFRET, IC50 (AID 743457).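 Note: green fluorescence rise as the enzyme cleaves BODIPY PC-A2 in liposomes; potency for inhibition of the enzyme.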
For test [2], the system named is BJ. Kind of test: cells. The class given is functional, cell-based. To be noted: Homo sapiens.
A short description of test [3]: Artemis endonuclease inhibitor potency, dose response, biochemical, fluorescence intensity (AID 720701).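 Note: Artemis endonuclease enzyme.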 The class given is functional.
Test [4] is described as follows: cytotoxicity toward DRD oncogenic fibroblasts, dose response, cell-based, non-viral oncogenic, luminescence (AID 1934). Type of test: functional. To be noted: Homo sapiens.
For test [5], the system named is BJ. The test can be described thus: cytotoxicity toward BJ-TERT-LT-ST fibroblasts, dose response, cell-based, RAS-independent, luminescence (AID 1935).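 Note: BJ fibroblasts immortalized with TERT plus LT and ST oncogenes.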 The class given is functional. As to conditions: Homo sapiens.
Test [6] has as its system BJ. Kind of test: cytotoxicity toward BJ-TERT fibroblasts, dose response, cell-based, RAS-independent, luminescence (AID 1933). The class given is functional. To be noted: Homo sapiens.
Test [7] deals with Streptococcus. The test can be described thus: Group A Streptococcus viability loss, dose response, counter-screen for streptokinase expression inhibitor project, luminescence, BacTiterGlo (AID 1915).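 Note: potency for reduction of bacterial viability or growth.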 The class given is functional, organism-based.
Test [8] concerns Streptococcus sp. 'group A'. Kind of test: growth inhibition of control SK(-) GAS strain, dose response, counter-screen for streptokinase expression inhibitor project, luminescence, kanamycin, BacTiterGlo, confirmation (AID 1900). Type of test: functional, organism-based.
A short description of test [9]: cytotoxicity in OVCAR8 ovarian cancer cells, dose response, PAX8 project, cell-based, plate reader, dry powder samples (AID 743197). Type of test: functional. To be noted: OVCAR-8.
Test [10] in a line: IGROV1 ovarian cancer cell cytotoxicity, dose response, PAX8 inhibitor project, plate reader, dry powder samples (AID 743043). Type of test: functional, cell-based. As to conditions: IGROV-1.
A short description of test [11]: NIH:OVCAR-3 ovarian cancer cell cytotoxicity, dose response, PAX8 inhibitor project, plate reader, dry powder samples (AID 743044). Type of test: functional, cell-based.
The target in test [12] is Paired box protein Pax-8 (Homo sapiens, UniProt Q06710). Kind of test: inhibitors of PAX8-driven TPO luciferase reporter, dose response, RMG-I cells, cherry-pick (AID 687027).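 Note: luciferase reporter driven by Pax8 target thyroperoxidase promoter measured by SteadyGlo luminescence.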 Type of test: functional, cell-based.
A short description of test [13]: HEK293T cytotoxicity, dose response, cytotoxicity control for miR-122 modulator project, cell-based, inhibitor set, cherry-pick, set 2 (AID 720697). Type of test: functional.
Test [14] in a line: P. falciparum Dd2 growth inhibitors, dose response, SYBR Green, cherry-picked samples (AID 1159567). The class given is functional, cell-based.
Test [15] in a line: P. falciparum ATP4 D1247Y mutant growth inhibitors, dose response, NITD609-resistant line, SYBR Green, dry powder (AID 1159571).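 Note: parasites synchronized at ring stage by sorbitol before testing.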 The class given is functional, cell-based.
Test [16] in a line: P. falciparum 3D7-ScDHODH growth inhibitors, dose response, SYBR Green, dry powder samples (AID 1159570).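 Note: parasite growth measured after 72 hours of compound exposure.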 Type of test: functional, cell-based.
Test [17] can be described thus: P. falciparum Dd2 growth inhibitors, dose response, SYBR Green, dry powder samples (AID 1159566).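 Note: potency for growth inhibition with lower SYBR green DNA signal.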 Type of test: functional, cell-based.
Test [18] is described as follows: cells. Type of test: functional, cell-based.
Test [19] deals with T1, Trace amine-associated receptor 1 (Homo sapiens, UniProt Q96RJ0).
T1 sequence (Q96RJ0 whole entry): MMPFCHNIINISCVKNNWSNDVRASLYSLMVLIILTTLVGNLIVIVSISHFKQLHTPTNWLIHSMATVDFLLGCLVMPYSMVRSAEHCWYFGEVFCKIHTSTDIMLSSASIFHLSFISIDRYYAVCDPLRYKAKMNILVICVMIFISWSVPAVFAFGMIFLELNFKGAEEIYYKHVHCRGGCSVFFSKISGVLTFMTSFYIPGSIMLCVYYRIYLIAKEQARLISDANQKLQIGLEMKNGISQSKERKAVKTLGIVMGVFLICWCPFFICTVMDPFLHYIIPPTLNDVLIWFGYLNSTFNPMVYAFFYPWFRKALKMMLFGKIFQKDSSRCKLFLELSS
The test can be described thus: Counterscreen for agonists of the human trace amine associated receptor 1 (hTAAR1): Fluorescence-based cell-based high throughput dose response assay to identify hTAAR1 agonist that also desensitize TAAR1 receptor response. The class given is functional.

For test [20], the target named is T1, Trace amine-associated receptor 1. Kind of test: Fluorescence-based cell-based high throughput dose response assay to identify agonists of the human trace amine associated receptor 1 (TAAR1). The class given is functional.
Test [21] in a line: cells. The class given is functional, cell-based. The source holds these as a separate data set.

The source made the active and inactive calls.

Chain of Paired box protein Pax-8 (Q06710 whole entry): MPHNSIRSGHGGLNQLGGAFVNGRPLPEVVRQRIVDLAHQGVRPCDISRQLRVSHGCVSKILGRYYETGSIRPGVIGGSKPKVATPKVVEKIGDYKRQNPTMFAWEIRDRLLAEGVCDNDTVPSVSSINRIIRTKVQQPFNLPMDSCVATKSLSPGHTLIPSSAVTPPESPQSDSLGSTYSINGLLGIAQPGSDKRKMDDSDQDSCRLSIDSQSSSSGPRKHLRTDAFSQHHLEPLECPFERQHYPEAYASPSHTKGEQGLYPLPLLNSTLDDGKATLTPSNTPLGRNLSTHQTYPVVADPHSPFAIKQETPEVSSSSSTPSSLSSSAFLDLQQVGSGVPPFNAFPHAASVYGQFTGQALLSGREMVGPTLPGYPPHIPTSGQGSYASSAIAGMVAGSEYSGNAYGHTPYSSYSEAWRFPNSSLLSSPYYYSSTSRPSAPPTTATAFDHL

Consider `O=C(NNC(=S)Nc1ccccc1)c1ccc2ncccc2c1`, for which the IC50 in test [1] was > 122 µM (inactive).
Still for that read-out and setting: to `O=C(Cc1cccs1)NNC(=S)NCc1ccc(Cl)cc1` belongs > 122 µM (inactive).
`COc1cccc(-c2cn3nc4c(nc3n2)CCCC4)c1`: the EC50 in test [2] was 21.6 µM (active); in [4], 12.9 µM (active); in test [5] it was > 150 µM (not active); in test [6], 16.2 µM (active). In addition, the IC50 in test [3] is > 20 µM (inactive).
Consider `COc1cc(C(=O)NNC(=S)NC(=O)c2ccc3c(c2)OCO3)cc(OC)c1OC`, for which the EC50 was 3.37 µM (active) in test [7] and 1.36 µM (active) in test [8]. Also, the IC50 in [1] is > 122 µM (inactive).
`Oc1ccc2ccccc2c1/C=N/c1nc2c(s1)CCCC2`: the IC50 in [3] is > 20 µM (inactive).
As to `COc1cccc(-c2ccc3c(c2)[C@@H]2[C@@H](CCN2S(=O)(=O)c2ccccc2OC)[C@H](CO)N3C)c1`, the AC50 in test [9] is 27.8 µM (active); in test [10], 50.6 µM (active); in [11], 18 µM (active); in test [12] it was 10.3 µM (active).
With `CN1C(=O)c2cc(NC(=O)c3cccs3)ccc2OC[C@H]2O[C@@H](CC(=O)NCCN3CCCCC3)CC[C@@H]21`, the AC50 in test [13] was 4.24 µM (active).
As for `CC(=O)N(/N=C1\Sc2ccccc2C1=O)c1ccccc1`, the IC50 in test [3] is 6.46 µM (active).
Take `C[C@H]1CN([C@@H](C)CO)S(=O)(=O)c2ccc(-c3ccc(C#N)cc3)cc2O[C@H]1CN(C)CC1CC1`: the AC50 was 2.27 µM (active) in test [14], 3.08 µM (active) in [15], 2.79 µM (active) in test [16] and 1.76 µM (active) in test [17].
With `COc1cccc(Nc2nc(NCCO)c3ccccc3n2)c1`, the IC50 in test [18] was > 29.9 µM (inactive); in test [19], 14 µM (inactive). Moreover, the EC50 in [20] is 4.4 µM (active); in [21] it was > 29.9 µM (inactive).
